Source: patent US20260070924A1, “INDAZOLE MACROCYCLES AND THEIR USE” (BLOSSOMHILL THERAPEUTICS, INC., priority 2022, published 2026)
Like-named read-outs stand apart in the source and are kept apart here.

Columns and labels:
MV-4-11 cells = experiment: MV-4-11 cell proliferation assay (CellTiter-Glo 2.0); type: cell-based; settings: MV-4-11, 384-well, 11-dose dilution series, read-out: IC50, inhibition of MV-4-11 cell proliferation
Description: MV-4-11 cell line was purchased from ATCC and maintained in RPMI medium supplemented with 10% fetal bovine serum and 100 U/mL of penicillin/streptomycin. One thousand MV-4-11 cells/50 μl per well were seeded in white 384-well plate, followed by treatment with indicated compounds in a 11-dose dilution series. Cell proliferation was measured using CellTiter-Glo 2.0 luciferase-based ATP detection assay (Promega, Madison, WI) following the manufacturer's protocol. Plates were then read on a TECAN Sparks multimode microplate reader. Data was analyzed using GraphPad Prism 9 (GraphPad Software, San Diego, CA) to obtain IC50 values.

CLK2 = CLK2 (Homo sapiens (Human), UniProt P49760); experiment: CLK kinase activity assay (ADP-Glo); type: biochemical
Description: (§1) Kinase protein and substrate were pre-diluted in the HEPES assay buffer (100 mM HEPES, pH 7.5, 0.01% Triton X-100, 0.1% BSA, 5 mM MgCl2, 1 mM DTT, 10 μM Sodium Orthovanadate, 10 μM Beta-Glycerophosphate) dispensed into 384 well plate (5 μL per well). Control samples (0%-inhibition in the absence of inhibitor, DMSO only) and 100%-inhibition (in the absence of enzyme) were assembled in replicates of six and were used to calculate %-inhibition in the presence of compounds. Test compounds were added to the protein samples by acoustic dispensing (Labcyte Echo550). Concentration of DMSO was equalized to 1% in all samples. Reactions were initiated by addition of ATP by acoustic dispensing (Labcyte Echo550) and incubated according to assay specific incubation time. After incubation, 5 uL of Promega ADP-Glo reagent was added and incubated for 40 minutes. After 40 minutes, 10 uL of Promega kinase detection reagent was added. After 10 min of incubation with Kinase detection reagent, the luminescence was read on microplate reader (Biotek Synergy).

CLK3 = CLK3 (Homo sapiens (Human), UniProt P49761); experiment: CLK kinase activity assay (ADP-Glo); type: biochemical
Description: as §1

CLK4 = CLK4 (Homo sapiens (Human), UniProt Q9HAZ1); experiment: CLK kinase activity assay (ADP-Glo); type: biochemical
Description: as §1

CLK1 = CLK1 (Homo sapiens (Human), UniProt P49759); experiment: CLK kinase activity assay (ADP-Glo); type: biochemical
Description: as §1

FLT3 = FLT3 (Homo sapiens (Human), UniProt P36888); experiment: HotSpot radiometric kinase assay (Reaction Biology); type: biochemical
FLT3-ITD = FLT3-ITD (Homo sapiens, UniProt P36888, ITD); experiment: as above; type: biochemical
Chain of FLT3-ITD (P36888 whole entry, looked up, change not shown): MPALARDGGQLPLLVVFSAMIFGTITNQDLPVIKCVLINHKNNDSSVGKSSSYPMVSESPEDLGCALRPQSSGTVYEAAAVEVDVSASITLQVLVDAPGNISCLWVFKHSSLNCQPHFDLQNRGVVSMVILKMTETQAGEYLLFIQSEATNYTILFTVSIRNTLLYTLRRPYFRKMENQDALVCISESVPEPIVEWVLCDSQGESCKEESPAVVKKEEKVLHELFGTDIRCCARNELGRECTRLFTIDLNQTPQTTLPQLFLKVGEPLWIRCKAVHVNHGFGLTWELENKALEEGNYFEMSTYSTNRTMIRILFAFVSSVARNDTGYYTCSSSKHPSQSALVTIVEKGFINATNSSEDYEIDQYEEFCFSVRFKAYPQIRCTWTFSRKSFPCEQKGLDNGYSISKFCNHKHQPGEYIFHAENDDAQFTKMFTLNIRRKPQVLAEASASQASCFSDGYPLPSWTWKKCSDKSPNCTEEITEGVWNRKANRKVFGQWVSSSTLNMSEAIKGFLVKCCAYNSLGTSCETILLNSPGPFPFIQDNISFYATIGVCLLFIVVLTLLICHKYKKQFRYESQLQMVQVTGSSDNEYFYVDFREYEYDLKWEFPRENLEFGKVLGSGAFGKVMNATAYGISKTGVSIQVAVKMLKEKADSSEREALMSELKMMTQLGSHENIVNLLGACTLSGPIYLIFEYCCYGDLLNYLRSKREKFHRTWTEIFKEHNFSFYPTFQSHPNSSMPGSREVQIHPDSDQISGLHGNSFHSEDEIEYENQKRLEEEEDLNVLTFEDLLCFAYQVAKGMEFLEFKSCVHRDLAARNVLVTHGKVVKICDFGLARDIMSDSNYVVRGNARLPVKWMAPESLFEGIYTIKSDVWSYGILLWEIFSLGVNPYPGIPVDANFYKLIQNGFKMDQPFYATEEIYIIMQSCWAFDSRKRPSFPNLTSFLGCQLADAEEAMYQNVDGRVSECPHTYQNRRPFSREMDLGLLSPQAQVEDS

Chain of CLK4 (Q9HAZ1 whole entry): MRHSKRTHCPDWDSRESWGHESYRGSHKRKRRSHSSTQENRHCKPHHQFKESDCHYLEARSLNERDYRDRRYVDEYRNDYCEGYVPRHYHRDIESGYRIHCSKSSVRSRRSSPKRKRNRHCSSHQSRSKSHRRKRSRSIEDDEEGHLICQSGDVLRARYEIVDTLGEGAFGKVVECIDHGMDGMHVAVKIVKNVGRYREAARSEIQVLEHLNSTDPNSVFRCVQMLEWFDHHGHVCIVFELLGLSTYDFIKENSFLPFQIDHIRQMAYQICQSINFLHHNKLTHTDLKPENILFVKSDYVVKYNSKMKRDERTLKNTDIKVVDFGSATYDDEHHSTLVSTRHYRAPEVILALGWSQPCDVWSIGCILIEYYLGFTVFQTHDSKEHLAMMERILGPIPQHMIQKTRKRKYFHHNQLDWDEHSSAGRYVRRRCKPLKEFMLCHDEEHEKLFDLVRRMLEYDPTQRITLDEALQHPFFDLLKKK
Chain of CLK2 (P49760 whole entry): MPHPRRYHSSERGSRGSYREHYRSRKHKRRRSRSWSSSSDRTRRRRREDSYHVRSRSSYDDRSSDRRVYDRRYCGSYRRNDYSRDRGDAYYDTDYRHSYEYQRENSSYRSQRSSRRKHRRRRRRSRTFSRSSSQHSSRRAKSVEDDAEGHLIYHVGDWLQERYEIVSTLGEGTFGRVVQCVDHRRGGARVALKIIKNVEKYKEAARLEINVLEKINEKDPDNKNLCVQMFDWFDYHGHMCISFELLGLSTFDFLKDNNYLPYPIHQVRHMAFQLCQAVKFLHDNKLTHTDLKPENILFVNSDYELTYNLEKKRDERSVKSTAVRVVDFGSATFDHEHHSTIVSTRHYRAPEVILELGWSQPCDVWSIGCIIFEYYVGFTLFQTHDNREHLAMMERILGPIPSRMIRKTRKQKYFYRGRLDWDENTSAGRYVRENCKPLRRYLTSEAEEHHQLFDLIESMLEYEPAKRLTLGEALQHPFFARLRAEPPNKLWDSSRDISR
Chain of FLT3 (P36888 27-993): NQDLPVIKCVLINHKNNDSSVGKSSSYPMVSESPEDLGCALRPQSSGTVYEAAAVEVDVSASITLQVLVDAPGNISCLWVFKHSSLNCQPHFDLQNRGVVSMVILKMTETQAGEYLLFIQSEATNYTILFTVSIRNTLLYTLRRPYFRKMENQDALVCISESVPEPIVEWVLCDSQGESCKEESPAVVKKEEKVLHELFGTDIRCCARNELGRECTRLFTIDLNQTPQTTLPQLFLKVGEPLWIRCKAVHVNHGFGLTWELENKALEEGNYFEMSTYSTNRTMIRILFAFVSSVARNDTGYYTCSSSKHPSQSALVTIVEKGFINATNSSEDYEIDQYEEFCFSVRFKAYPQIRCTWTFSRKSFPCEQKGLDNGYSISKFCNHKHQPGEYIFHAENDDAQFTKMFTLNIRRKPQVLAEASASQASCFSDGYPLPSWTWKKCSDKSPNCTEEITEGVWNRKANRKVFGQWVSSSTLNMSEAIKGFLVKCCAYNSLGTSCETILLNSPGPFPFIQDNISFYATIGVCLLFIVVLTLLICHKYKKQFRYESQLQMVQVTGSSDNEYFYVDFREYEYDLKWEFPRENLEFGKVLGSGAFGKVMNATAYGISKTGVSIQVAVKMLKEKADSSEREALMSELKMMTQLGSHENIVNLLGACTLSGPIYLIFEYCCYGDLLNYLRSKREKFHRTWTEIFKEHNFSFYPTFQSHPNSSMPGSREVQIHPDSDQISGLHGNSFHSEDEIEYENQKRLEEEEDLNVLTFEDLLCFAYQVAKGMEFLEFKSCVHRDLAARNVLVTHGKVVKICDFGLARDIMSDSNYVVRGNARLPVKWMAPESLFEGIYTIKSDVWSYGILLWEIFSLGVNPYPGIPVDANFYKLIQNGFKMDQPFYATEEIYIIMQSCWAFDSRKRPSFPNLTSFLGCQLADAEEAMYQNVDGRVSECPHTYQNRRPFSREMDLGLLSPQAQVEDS
Chain of CLK3 (P49761 whole entry): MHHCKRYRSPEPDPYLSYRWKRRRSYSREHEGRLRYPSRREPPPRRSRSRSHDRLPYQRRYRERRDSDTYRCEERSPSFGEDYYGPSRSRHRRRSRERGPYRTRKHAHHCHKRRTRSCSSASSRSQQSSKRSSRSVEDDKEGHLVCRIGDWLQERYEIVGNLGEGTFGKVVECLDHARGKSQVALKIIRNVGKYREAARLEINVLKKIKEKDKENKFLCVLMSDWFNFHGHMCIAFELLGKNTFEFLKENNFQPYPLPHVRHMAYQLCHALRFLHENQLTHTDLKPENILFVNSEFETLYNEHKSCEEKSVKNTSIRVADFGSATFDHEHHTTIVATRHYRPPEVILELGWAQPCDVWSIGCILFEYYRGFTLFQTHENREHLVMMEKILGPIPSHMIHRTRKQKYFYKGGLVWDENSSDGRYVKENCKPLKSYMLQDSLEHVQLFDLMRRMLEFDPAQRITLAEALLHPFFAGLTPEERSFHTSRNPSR
Chain of CLK1 (P49759 whole entry): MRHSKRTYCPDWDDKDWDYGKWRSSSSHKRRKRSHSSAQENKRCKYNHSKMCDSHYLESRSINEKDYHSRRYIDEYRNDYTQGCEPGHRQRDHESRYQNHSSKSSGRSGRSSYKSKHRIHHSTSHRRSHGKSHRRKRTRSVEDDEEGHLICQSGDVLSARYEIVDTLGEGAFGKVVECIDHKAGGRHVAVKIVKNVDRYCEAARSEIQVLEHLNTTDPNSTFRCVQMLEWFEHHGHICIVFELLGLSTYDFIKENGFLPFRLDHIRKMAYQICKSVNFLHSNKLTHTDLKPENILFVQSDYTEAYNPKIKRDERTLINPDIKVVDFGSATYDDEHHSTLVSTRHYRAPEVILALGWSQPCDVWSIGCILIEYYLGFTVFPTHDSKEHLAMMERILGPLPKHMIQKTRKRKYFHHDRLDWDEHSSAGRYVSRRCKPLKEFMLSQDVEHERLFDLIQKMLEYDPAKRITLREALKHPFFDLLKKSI

Row | Compound | IC50 (MV-4-11 cells; Homo sapiens, MV4-11) [nM] | IC50 (CLK2) [nM] | IC50 (CLK3) [nM] | IC50 (CLK4) [nM] | IC50 (CLK1) [nM] | IC50 (FLT3) [nM] | IC50 (FLT3-ITD) [nM] | IC50 (MV-4-11 cells) [nM]
1 | Cc1nn(CCO)c2c1/C=C/c1n[nH]c3ccc(cc13)-c1cnn(C)c1OCCN(C)C2=O [Ex. 16, (17E)-14-(2-hydroxyethyl)-8,12,16-trimethyl-2,11,12,14-tetrahydro-8H-3,5-ethenotripyrazolo[3,4-f:3′,4′-j:4″,3″-n][1,4]oxazacyclopentadecin-13(10H)-one] | < 1 | 0.16 | 10.4 | 0.758 | 0.299 | – | – | –
2 | [2H]C([2H])([2H])N1CCOc2c(cnn2C)-c2ccc3[nH]nc(c3c2)/C=C/c2c(CC)nn(C([2H])([2H])[2H])c2C1=O [compound 21, (17E)-16-ethyl-8-methyl-12,14-bis[(^2H3)methyl]-2,11,12,14-tetrahydro-8H-3,5-ethenotripyrazolo[3,4-f:3′,4′-j:4″,3″-n][1,4]oxazacyclopentadecin-13(10H)-one] | < 0.2 | – | – | – | – | – | – | –
3 | CCc1nn(C)c2c1/C=C/c1n[nH]c3ccc(cc13)-c1cc(F)ccc1OCCN(C)C2=O [Ex. 2, (18E)-17-ethyl-7-fluoro-13,15-dimethyl-2,12,13,15-tetrahydro-3,5-ethenodipyrazolo[3,4-f:3′,4′-j][1,4]benzoxazacyclopentadecin-14(11H)-one] | 353 | – | – | – | – | – | – | –
4 | CCc1noc2c1/C=C/c1n[nH]c3ccc(cc13)-c1cnn(C)c1OCCN(C)C2=O [Ex. 25, (17E)-16-ethyl-8,12-dimethyl-2,8,11,12-tetrahydro-3,5-etheno[1,2]oxazolo[5,4-f]dipyrazolo[3,4-j:4′,3′-n][1,4]oxazacyclopentadecin-13(10H)-one] | 0.52 | – | – | – | – | – | – | –
5 | CCc1nn(C)c2c1/C=C/c1n[nH]c3ccc(cc13)-c1cnn(C)c1O[C@@H](C)CN(C)C2=O [Ex. 23, (10S,17E)-16-ethyl-8,10,12,14-tetramethyl-2,11,12,14-tetrahydro-8H-3,5-ethenotripyrazolo[3,4-f:3′,4′-j:4″,3″-n][1,4]oxazacyclopentadecin-13(10H)-one] | 4.1 | 0.225 | 5.53 | 1.39 | 0.843 | 0.416 | 0.967 | –
6 | (18E)-15-(2-hydroxyethyl)-8,10,13,17-tetramethyl-2,8,9,10,11,12,13,15-octahydro-14H-3,5-ethenotripyrazolo[3,4-f:3′,4′-j:4″,3″-n][1,4]diazacyclohexadecin-14-one [Ex. 26] | – | 0.386 | 31.1 | 0.605 | 0.233 | – | – | 15
7 | CCOc1nn(C)c2c1/C=C/c1n[nH]c3ccc(cc13)-c1cnn(C)c1OCCN(C)C2=O [Ex. 22, (17E)-16-ethoxy-8,12,14-trimethyl-2,11,12,14-tetrahydro-8H-3,5-ethenotripyrazolo[3,4-f:3′,4′-j:4″,3″-n][1,4]oxazacyclopentadecin-13(10H)-one] | < 0.2 | 0.253 | 9.47 | 0.668 | 0.355 | 0.093 | 0.527 | –
8 | CCc1c2c(nn1C)C(=O)N(C)CCOc1ccc(F)cc1-c1ccc3[nH]nc(c3c1)/C=C/2 [Ex. 1, (18E)-17-ethyl-7-fluoro-13,16-dimethyl-2,12,13,16-tetrahydro-3,5-ethenodipyrazolo[3,4-f:3′,4′-j][1,4]benzoxazacyclopentadecin-14(11H)-one] | 1160 | – | – | – | – | – | – | –
9 | Cc1nn(C)c2c1/C=C/c1n[nH]c3ccc(cc13)-c1cnn(C)c1OCCOCCN(C)C2=O [compound 14, (15E)-3,10,12,14-tetramethyl-5,6,9,10,12,18-hexahydro-3H-19,21-ethenotripyrazolo[3,4-i:3′,4′-m:4″,3″-q][1,4,7]dioxazacyclooctadecin-11(8H)-one] | 384 | – | – | – | – | – | – | –

Continued, in another order:

Row | IC50 (MV-4-11 cells; Homo sapiens, MV4-11) [nM] | IC50 (CLK2) [nM] | IC50 (CLK3) [nM] | IC50 (CLK4) [nM] | IC50 (CLK1) [nM] | IC50 (FLT3) [nM] | IC50 (FLT3-ITD) [nM] | Compound | IC50 (MV-4-11 cells) [nM]
10 | < 0.2 | – | – | – | – | – | – | CCn1nc(C)c2c1C(=O)N(C)CCOc1c(cnn1C)-c1ccc3[nH]nc(c3c1)/C=C/2 [compound 11, (17E)-14-ethyl-8,12,16-trimethyl-2,11,12,14-tetrahydro-8H-3,5-ethenotripyrazolo[3,4-f:3′,4′-j:4″,3″-n][1,4]oxazacyclopentadecin-13(10H)-one] | –
11 | 7.6 | 1.11 | 108 | 3.03 | 1.55 | – | – | CCOc1nn(CCO)c2c1/C=C/c1n[nH]c3ccc(cc13)-c1cnn(C)c1OCCN(C)C2=O [Ex. 27, (17E)-16-ethoxy-14-(2-hydroxyethyl)-8,12-dimethyl-2,11,12,14-tetrahydro-8H-3,5-ethenotripyrazolo[3,4-f:3′,4′-j:4″,3″-n][1,4]oxazacyclopentadecin-13(10H)-one] | –
12 | > 10000 | – | – | – | – | – | – | CCc1c2c(nn1C)C(=O)N(C)CCOc1ccc(F)cc1-c1cc(Cl)c3[nH]nc(c3c1)/C=C/2 [compound 5, (18E)-21-chloro-17-ethyl-7-fluoro-13,16-dimethyl-2,12,13,16-tetrahydro-3,5-ethenodipyrazolo[3,4-f:3′,4′-j][1,4]benzoxazacyclopentadecin-14(11H)-one] | –
13 | 15.5 | – | – | – | – | – | – | Cc1nn(C)c2c1/C=C/c1n[nH]c3ccc(cc13)-c1cnn(C)c1OCCCN(C)C2=O [Ex. 13, (18E)-8,13,15,17-tetramethyl-2,10,11,12,13,15-hexahydro-3,5-ethenotripyrazolo[3,4-g:3′,4′-k:4″,3″-o][1,5]oxazacyclohexadecin-14(8H)-one] | –
14 | 4.6 | 0.161 | 2.77 | 0.53 | 0.157 | – | – | Cc1nn(C)c2c1/C=C/c1n[nH]c3ccc(cc13)-c1cnn(C)c1CN(C)CCN(C)C2=O [Ex. 15, (18E)-8,10,13,15,17-pentamethyl-2,8,9,10,11,12,13,15-octahydro-14H-3,5-ethenotripyrazolo[3,4-f:3′,4′-j:4″,3″-n][1,4]diazacyclohexadecin-14-one] | –
15 | 15.2 | – | – | – | – | 0.564 | 1.05 | Cc1c2c(nn1CCN1CCCC1)C(=O)N(C)CCOc1c(cnn1C)-c1ccc3[nH]nc(c3c1)/C=C/2 [Ex. 19, (17E)-8,12,16-trimethyl-15-[2-(pyrrolidin-1-yl)ethyl]-2,11,12,15-tetrahydro-8H-3,5-ethenotripyrazolo[3,4-f:3′,4′-j:4″,3″-n][1,4]oxazacyclopentadecin-13(10H)-one] | –
16 | 21.2 | – | – | – | – | – | – | CN1CCOc2c(cnn2C)-c2ccc3[nH]nc(c3c2)/C=C/c2cn(C)nc2C1=O [compound 4, (17E)-8,12,15-trimethyl-2,11,12,15-tetrahydro-8H-3,5-ethenotripyrazolo[3,4-f:3′,4′-j:4″,3″-n][1,4]oxazacyclopentadecin-13(10H)-one] | –
17 | 17.8 | – | – | – | – | – | – | Cc1nn(CCN2CCCC2)c2c1/C=C/c1n[nH]c3ccc(cc13)-c1cnn(C)c1OCCN(C)C2=O [Ex. 18, (17E)-8,12,16-trimethyl-14-[2-(pyrrolidin-1-yl)ethyl]-2,11,12,14-tetrahydro-8H-3,5-ethenotripyrazolo[3,4-f:3′,4′-j:4″,3″-n][1,4]oxazacyclopentadecin-13(10H)-one] | –
18 | 141 | 0.67 | 92.9 | 0.593 | 0.415 | 0.23 | 0.475 | CN1CCOc2c(cnn2C)-c2ccc3[nH]nc(c3c2)/C=C/c2c(C#N)nn(C)c2C1=O [Ex. 24, (17E)-8,12,14-trimethyl-13-oxo-2,10,11,12,13,14-hexahydro-8H-3,5-ethenotripyrazolo[3,4-f:3′,4′-j:4″,3″-n][1,4]oxazacyclopentadecine-16-carbonitrile] | –
19 | 865 | – | – | – | – | – | – | Cc1c2c(nn1C)C(=O)NCCOc1c(cnn1C)-c1ccc3[nH]nc(c3c1)/C=C/2 [Ex. 10, (17E)-8,15,16-trimethyl-2,11,12,15-tetrahydro-8H-3,5-ethenotripyrazolo[3,4-f:3′,4′-j:4″,3″-n][1,4]oxazacyclopentadecin-13(10H)-one] | –
20 | 1.1 | – | – | – | – | 0.187 | 0.775 | Cc1nn(C(C)C)c2c1/C=C/c1n[nH]c3ccc(cc13)-c1cnn(C)c1OCCN(C)C2=O [compound 20, (17E)-8,12,16-trimethyl-14-(propan-2-yl)-2,11,12,14-tetrahydro-8H-3,5-ethenotripyrazolo[3,4-f:3′,4′-j:4″,3″-n][1,4]oxazacyclopentadecin-13(10H)-one] | –
